Measured values from US20240009239A1, “THERAPEUTIC TARGETING OF MESOTHELIN IN ACUTE MYELOID LEUKEMIA WITH CHIMERIC ANTIGEN RECEPTOR T CELL THERAPY” (FRED HUTCHINSON CANCER CENTER, priority 2020, published 2024).

Experiments:
[1] = test system: ADAM17-mediated MSLN shedding; test: Cell surface mesothelin on Nomo-1 by flow cytometry after GM6001; assay type: cell-based; details: Nomo-1 cells, GM6001 50 uM, 48 hours, vs DMSO control
Description: Cell surface abundance and viability were measured by flow cytometry (FIG. 2A) and shed MSLN was quantified by ELISA (FIG. 2B). […] Data presented are mean tumor specific lysis+/−standard deviation from 3 technical replicates at indicated E:T ratios for 3 independent experiments. […] Secreted levels of IFN-g (left panel) and TNF-a (right panel) were measured after 8 hours of T cell/AML co-culture at E:T 10:1 by ELISA. Data presented are mean+/−standard deviation from 3 technical replicates. Statistical significance was determined by unpaired Student's t test, assuming unequal variances. p<0.05(*), p<0.005(**), p<0.0005(***).
Nomo-1 and Kasumi-1 were obtained from ATCC and maintained in RPMI with FBS (10% for Nomo-1, 20% for Kasumi-1) and L-glutamine (2 mM). […] The Kasumi-1 MSLN+ cell line was engineered by transducing Kasumi-1 cells with a lentivirus encoding MSLN driven by the ELF1a promoter.
For in vivo CAR T study, Nomo-1 cells, which express endogenous level of MSLN, and Kasumi-1 cells engineered to express MSLN with a lentivirus construct (Kasumi-1 MSLN+) were transplanted into NSG mice. Mock transduced MSLN-directed CAR T cells were infused 1 week (Nomo-1) and 2 weeks (Kasumi-1 MSLN+) following leukemic cell injection. Leukemic burden was measured by bioluminescence IVIS imaging weekly.

Nomo-1 cells = test: Viability of Nomo-1 cells after GM6001 without CAR T cells; assay type: cell-based; details: GM6001 treatment, data not shown
Description: FIGS. 2A-2D. […] FIGS. 2A-2B. […] FIG. 2C. […] FIG. 2D.
AML cell lines and GM6001 treatment.

What does the source list for `CNC(=O)[C@H](Cc1c[nH]c2ccccc12)NC(=O)[C@@H](CC(=O)NO)CC(C)C` [GM6001]?
level of cell surface mesothelin [1]: increased; cell viability of Nomo-1 cells in the absence of CAR T cells (Nomo-1 cells): did not significantly impact
